17 compounds from patent US20260138961A1, “MODULATORS OF MITOCHONDRIAL DNA REPLICATION” (Pretzel Therapeutics, Inc., priority 2022, published 2026) can be followed below.

A value given as a limit tells only on which side of the number the result lay.

The assay has as its target T1, POLγA:A467T (Homo sapiens, UniProt P54098, A467T).
T1 sequence (P54098 1-1239 A467T): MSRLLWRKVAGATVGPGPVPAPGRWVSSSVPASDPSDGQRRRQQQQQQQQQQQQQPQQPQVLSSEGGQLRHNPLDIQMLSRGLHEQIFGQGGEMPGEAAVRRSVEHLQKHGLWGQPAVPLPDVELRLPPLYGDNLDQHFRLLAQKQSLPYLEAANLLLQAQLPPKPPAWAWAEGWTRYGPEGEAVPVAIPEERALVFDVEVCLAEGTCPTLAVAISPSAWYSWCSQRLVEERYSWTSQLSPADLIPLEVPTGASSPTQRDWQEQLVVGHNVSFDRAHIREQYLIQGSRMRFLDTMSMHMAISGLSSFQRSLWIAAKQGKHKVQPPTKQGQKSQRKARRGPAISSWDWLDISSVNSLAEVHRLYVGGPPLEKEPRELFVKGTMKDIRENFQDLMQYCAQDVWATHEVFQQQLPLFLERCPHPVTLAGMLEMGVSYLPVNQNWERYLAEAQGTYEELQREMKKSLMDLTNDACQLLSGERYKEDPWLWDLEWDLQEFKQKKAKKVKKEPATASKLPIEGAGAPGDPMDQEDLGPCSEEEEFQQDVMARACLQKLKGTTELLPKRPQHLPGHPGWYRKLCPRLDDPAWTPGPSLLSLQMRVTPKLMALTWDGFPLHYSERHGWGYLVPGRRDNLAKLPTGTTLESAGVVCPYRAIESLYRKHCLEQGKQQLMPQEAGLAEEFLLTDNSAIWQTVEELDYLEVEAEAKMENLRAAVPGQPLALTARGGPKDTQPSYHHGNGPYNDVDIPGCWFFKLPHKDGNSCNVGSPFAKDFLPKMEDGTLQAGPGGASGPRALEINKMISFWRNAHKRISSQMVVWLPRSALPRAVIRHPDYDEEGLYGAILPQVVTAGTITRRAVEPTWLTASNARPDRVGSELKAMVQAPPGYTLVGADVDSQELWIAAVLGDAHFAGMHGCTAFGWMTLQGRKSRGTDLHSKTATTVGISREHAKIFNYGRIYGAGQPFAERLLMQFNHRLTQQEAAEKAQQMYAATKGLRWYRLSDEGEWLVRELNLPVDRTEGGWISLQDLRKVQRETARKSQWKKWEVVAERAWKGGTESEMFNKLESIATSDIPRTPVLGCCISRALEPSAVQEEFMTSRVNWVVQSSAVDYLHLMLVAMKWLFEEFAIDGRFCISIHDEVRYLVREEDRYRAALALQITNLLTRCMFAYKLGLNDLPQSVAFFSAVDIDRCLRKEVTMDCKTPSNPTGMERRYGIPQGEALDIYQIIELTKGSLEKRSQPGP
T1 sequence (Q9UHN1 1-485 partner): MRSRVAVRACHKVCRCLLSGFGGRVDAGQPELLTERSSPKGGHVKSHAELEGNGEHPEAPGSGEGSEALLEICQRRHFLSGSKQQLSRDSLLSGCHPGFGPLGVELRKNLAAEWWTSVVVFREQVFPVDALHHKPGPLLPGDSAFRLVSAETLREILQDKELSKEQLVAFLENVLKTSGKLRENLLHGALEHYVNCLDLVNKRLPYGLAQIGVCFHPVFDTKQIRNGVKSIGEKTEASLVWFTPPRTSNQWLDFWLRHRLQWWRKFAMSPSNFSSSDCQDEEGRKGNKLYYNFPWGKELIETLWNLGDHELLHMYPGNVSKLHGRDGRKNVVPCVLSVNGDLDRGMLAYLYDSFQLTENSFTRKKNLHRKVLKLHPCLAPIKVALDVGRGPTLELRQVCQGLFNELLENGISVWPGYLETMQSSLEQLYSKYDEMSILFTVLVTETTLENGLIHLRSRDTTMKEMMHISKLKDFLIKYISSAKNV
The assay can be described thus: DNA polymerization assay, POLγA:A467T mutant. It is filed as biochemical. The conditions noted are these: stimulation of polymerase activity, primed M13mp18 ssDNA, 37° C. 2 hours; read-out: A467T AC50. The method, then:
DNA Polymerization Assay to Monitor Effects on Human Wildtype POLγ and Four Disease-Causing Mutant Variants of Human POLγ.
The ability of small molecules to stimulate the polymerase activity of POLγ was analyzed in a quantitative fluorescence SYBR Green I assay with fluorescence intensity (FI) readout.
In the presence of dNTPs, wild type human POLγ and mutant derivatives thereof were incubated with single-stranded, circular M13mp18 ssDNA hybridized to a short DNA oligonucleotide that functions as a primer for initiation of DNA synthesis. POLγ and mutant derivatives thereof will extend the primer and use the M13mp18 molecule as a template to synthesize long stretches of double-stranded DNA. SYBR Green I, which is a double-stranded DNA-binding dye, was used to quantify formation of double-stranded DNA in the reaction. When bound to double-stranded DNA, SYBR Green I fluorescence increases by up to 100-fold.
The assay was performed in the 384-well plate format. Upon addition of compounds, changes in double-stranded DNA synthesis activity can be monitored by following effects on fluorescent intensity.
The reactions also contained the accessory POLγB subunit, and the human mitochondrial single-stranded DNA binding protein (mtSSB).
The DNA template mixture used in the assay contained 0.5 nM primed M13 mp18 ssDNA, 400 nM mtSSB, 0.1 mM Tris-HCl (pH 8.0), 0.1 mM dNTP, 10 mM MgCl2, 0.1 mg/mL BSA, 1 mM TCEP solution, and 0.02% Triton X-100. The DNA template mixture for the wild type protein contained either 100 μM dNTP, 1 μM dNTP, or 0.1 μM dNTP, designated in Table 2 as 100 μM, 1 μM, and 0.1 μM, respectfully.
Microplates with compounds (0.1 μL in each well) to be tested in the assay were prepared from 10 mM compound stocks in 100% DMSO, and equal amounts of DMSO without any compound were added to positive and negative control wells.
The protein mixture was dispensed (5 μL into each well) into compound plates and incubated at 37° C. for 15 minutes. After incubation, 5 μL of the DNA template mixture was dispensed into each well. The plates were then incubated at 37° C. for 2 hours.
During incubation, a combined stop buffer and detection reagent solution was prepared. The buffer contained 25 mM EDTA (pH 8.0), 0.02% Triton X-100, and SYBR Green I [Invitrogen] diluted 10,000× (for fluorescent readout). EDTA will stop the enzymatic reaction by chelating magnesium ions.
The term AC50 denotes the midpoint of the concentration-response curve, whichever way the signal moves. As for `Cc1ccc(S(=O)(=O)Nc2csc(-c3ccccc3)n2)c(C)c1` [Example 123, 2,4-dimethyl-N-(2-phenylthiazol-4-yl)benzenesulfonamide], the AC50 was over 100 µM.
Consider `Cc1ccc(C)c(S(=O)(=O)Nc2cccc(C(=O)N3CCCC[C@H]3C)c2)c1` [Example 5, (R)-2,5-dimethyl-N-(3-(2-methylpiperidine-1-carbonyl)phenyl)benzenesulfonamide], for which the AC50 was 33 µM.
The result for `Cc1cc(S(=O)(=O)Nc2csc(-c3ccccc3)n2)c(F)cc1Cl` [Example 146, 4-chloro-2-fluoro-5-methyl-N-(2-phenylthiazol-4-yl)benzenesulfonamide] reads over 100 µM; that for `Cc1cc(S(=O)(=O)Nc2cccc(-c3ncc(C(N)=O)s3)c2)c(C)cc1Cl` [Example 92, 2-(3-((4-chloro-2,5-dimethylphenyl)sulfonamido)phenyl) thiazole-5-carboxamide], over 100 µM; that for `O=S(=O)(Nc1csc(-c2ccccc2)n1)c1ccc(Cl)cc1Cl` [Example 138, 2,4-dichloro-N-(2-phenylthiazol-4-yl)benzenesulfonamide], over 100 µM.
In the case of `O=S(=O)(Nc1csc(-c2ccccc2)n1)c1ccc(C(F)(F)F)cc1F` [Example 141, 2-fluoro-N-(2-phenylthiazol-4-yl)-4-(trifluoromethyl)benzenesulfonamide] it was over 100 µM; in that of `Cc1cc(S(=O)(=O)Nc2cccc(-c3nccn3C)c2)c(C)cc1Cl` [Example 19, 4-chloro-2,5-dimethyl-N-(3-(1-methyl-1H-imidazol-2-yl)phenyl)benzenesulfonamide], 11 µM.
In the case of `Cc1cc(S(=O)(=O)N[C@H]2CCCN(C(=O)N3CCCC3)C2)c(C)cc1Cl` [Example 130, (S)-4-chloro-2,5-dimethyl-N-(1-(pyrrolidinee-1-carbonyl)piperidin-3-yl)benzenesulfonamide] it was over 100 µM; in that of `Cc1cc(S(=O)(=O)Nc2cccc(-c3ncc(C(=O)N(C)C)s3)c2)c(C)cc1Cl` [Example 94, 2-(3-((4-chloro-2,5-dimethylphenyl)sulfonamido)phenyl)-N,N-dimethylthiazole-5-carboxamide], over 100 µM; in that of `Cc1cc(S(=O)(=O)Nc2cccc(C(=O)N3CCC[C@H]3CO)c2)c(C)cc1Cl` [Example 145, (S)-4-chloro-N-(3-(2-(hydroxymethyl)pyrrolidine-1-carbonyl)phenyl)-2,5-dimethylbenzenesulfonamide], over 100 µM.
Regarding `Cc1cc(Cl)ccc1S(=O)(=O)Nc1cccc(C(=O)N2CCC[C@H]2C)c1` [Example 116, (R)-4-chloro-2-methyl-N-(3-(2-methylpyrrolidine-1-carbonyl)phenyl)benzenesulfonamide], the half-maximal activity concentration (AC50) was over 100 µM.
The result for `O=S(=O)(Nc1csc(-c2ccccc2)n1)c1ccccn1` [Example 139, N-(2-phenylthiazol-4-yl)pyridine-2-sulfonamide] reads over 100 µM; that for `Cc1cc(Cl)ccc1S(=O)(=O)Nc1csc(-c2ccccc2)n1` [Example 135, 4-chloro-2-methyl-N-(2-phenylthiazol-4-yl)benzenesulfonamide], 32 µM; that for `Cc1cc(S(=O)(=O)Nc2cccc(C(=O)N3CCCOC(C)(C)C3)c2)c(C)cc1Cl` [Example 106, 4-chloro-N-(3-(2,2-dimethyl-1,4-oxazepane-4-carbonyl)phenyl)-2,5-dimethylbenzenesulfonamide], over 100 µM.
In the case of `Cc1cc(S(=O)(=O)Nc2csc(-c3ccccc3)n2)c(Cl)cc1F` [Example 136, 2-chloro-4-fluoro-5-methyl-N-(2-phenylthiazol-4-yl)benzenesulfonamide] it was 5 µM.
In the case of `O=S(=O)(Nc1csc(-c2ccccc2)n1)c1ccc(Cl)cc1` [Example 120, 4-chloro-N-(2-phenylthiazol-4-yl)benzenesulfonamide] it was over 100 µM; in that of `O=S(=O)(Nc1csc(-c2ccccc2)n1)c1ccc(F)cc1F` [Example 140, 2,4-difluoro-N-(2-phenylthiazol-4-yl)benzenesulfonamide], over 100 µM.
